Experimental data as given in US6469028B1, “Synthesis and use of retinoid compounds having negative hormone and/or anatgonist activities” (Allergan, Inc., priority 1995, dated 2002).

How the values were obtained:
[1] = biological target: T1, RARβ (Homo sapiens, UniProt P10826); assay: Ligand binding assay; conditions: read-out: Kd (nanomolar) RARβ
T1 sequence (P10826 1-455): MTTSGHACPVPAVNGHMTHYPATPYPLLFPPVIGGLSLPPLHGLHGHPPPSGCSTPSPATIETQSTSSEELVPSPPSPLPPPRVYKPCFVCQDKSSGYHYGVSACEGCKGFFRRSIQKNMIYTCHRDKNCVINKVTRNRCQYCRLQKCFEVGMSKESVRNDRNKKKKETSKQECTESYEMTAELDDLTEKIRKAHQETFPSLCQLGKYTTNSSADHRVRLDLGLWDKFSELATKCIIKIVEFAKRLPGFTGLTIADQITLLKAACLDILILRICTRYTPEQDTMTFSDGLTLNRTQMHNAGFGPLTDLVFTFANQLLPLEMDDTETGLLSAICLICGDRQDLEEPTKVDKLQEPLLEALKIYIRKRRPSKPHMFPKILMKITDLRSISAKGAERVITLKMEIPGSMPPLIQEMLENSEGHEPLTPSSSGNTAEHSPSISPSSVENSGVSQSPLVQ
From the text: (§1) A holoreceptor transactivation assay and a ligand binding assay which measure the antagonist/agonist like activity of the compounds of the invention, or their ability to bind to the several retinoid receptor subtypes, respectively, are described in published PCT Application No. WO93/11755 (particularly on pages 30-33 and 37-41) published on Jun. 24, 1993, the specification of which is also incorporated herein by reference. A description of the holoreceptor transactivation assay is also provided below.
(§2) CV1 cells (5,000 cells/well) were transfected with an RAR reporter plasmid MTV-TREp-LUC (50 ng) along with one of the RAR expression vectors (10 ng) in an automated 96-well format by the calcium phosphate procedure of Heyman et al. Cell 68: 397-406. For RXR-α and RXR-γ transactivation assays, an RXR-responsive reporter plasmid CRBPII-tk-LUC (50 ng) along with the appropriate RXR expression vectors (10 ng) was used substantially as described by Heyman et al. above, and Allegretto et al. J. Biol. Chem. 268: 26625-26633. For RXR-β transactivation assays, an RXR-responsive reporter plasmid CPRE-tk-LUC ([…]) along with RXR-β expression vector ([…]) was used as described in above. These reporters contain DRI elements from human CRBPII and certain DRI elements from promotor, respectively (see Mangelsdorf et al. The Retinoids: Biology Chemistry and Medicine, pp. 319-349, Raven Press Ltd., New York and Heyman et al., cited above). A β-galactosidase (50 ng) expression vector was used as an internal control in the transfections to normalize for variations in transfection efficiency. The cells were transfected in triplicate for 6 hours, followed by incubation with retinoids for 36 hours, and the extracts were assayed for luciferase and […] activities. The detailed experimental procedure for holoreceptor transactivations has been described in Heyman et al. above, and Allegretto et al. cited above. The results obtained in this assay are expressed in EC50 numbers, as they are also in the chimeric receptor transactivation assay. The Heyman et al. Cell 68: 397-406, Allegretto et al. J. Biol. Chem. 268: 26625-26633, and Mangelsdorf et al. The Retinoids: Biology, Chemistry, and Medicine, pp. 319-349, Raven Press Ltd., New York, are expressly incorporated herein by reference. The results of ligand binding assay are expressed in Kd numbers. (See Cheng et al. Biochemical Pharmacology 22: 3099-3108, expressly incorporated herein by reference.) […]

[2] = test system: RAR-γ-VP-16; assay: Example 12: assay for retinoid negative hormones, CV-1 cells; type: cell-based; conditions: 10^−9 to 10^−6 M, 18 hours, no agonist
[3] = biological target: T2, RARα (Homo sapiens, UniProt P10276); assay: Ligand binding assay; design: expressed in transfected cells; host or cells: CV1 cells; conditions: read-out: Kd (nanomolar) RARα
T2 sequence (P10276 1-462): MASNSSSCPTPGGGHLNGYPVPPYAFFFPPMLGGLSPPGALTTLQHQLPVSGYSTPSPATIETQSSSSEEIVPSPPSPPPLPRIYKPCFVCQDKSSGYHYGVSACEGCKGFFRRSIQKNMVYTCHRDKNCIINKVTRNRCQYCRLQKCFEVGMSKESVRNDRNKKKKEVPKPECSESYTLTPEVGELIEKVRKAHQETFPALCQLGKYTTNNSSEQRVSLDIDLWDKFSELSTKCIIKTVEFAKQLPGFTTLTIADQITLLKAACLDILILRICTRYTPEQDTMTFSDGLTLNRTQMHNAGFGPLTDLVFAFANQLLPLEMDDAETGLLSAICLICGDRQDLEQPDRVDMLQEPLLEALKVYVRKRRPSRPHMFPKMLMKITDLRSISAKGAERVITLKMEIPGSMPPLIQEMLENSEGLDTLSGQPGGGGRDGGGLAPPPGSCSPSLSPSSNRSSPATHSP
From the text: as §1, §2

[4] = biological target: T3, RARγ (Homo sapiens, UniProt P13631); assay: Ligand binding assay; design: expressed in transfected cells; host or cells: CV1 cells; conditions: read-out: Kd (nanomolar) RARγ
T3 sequence (P13631 1-454): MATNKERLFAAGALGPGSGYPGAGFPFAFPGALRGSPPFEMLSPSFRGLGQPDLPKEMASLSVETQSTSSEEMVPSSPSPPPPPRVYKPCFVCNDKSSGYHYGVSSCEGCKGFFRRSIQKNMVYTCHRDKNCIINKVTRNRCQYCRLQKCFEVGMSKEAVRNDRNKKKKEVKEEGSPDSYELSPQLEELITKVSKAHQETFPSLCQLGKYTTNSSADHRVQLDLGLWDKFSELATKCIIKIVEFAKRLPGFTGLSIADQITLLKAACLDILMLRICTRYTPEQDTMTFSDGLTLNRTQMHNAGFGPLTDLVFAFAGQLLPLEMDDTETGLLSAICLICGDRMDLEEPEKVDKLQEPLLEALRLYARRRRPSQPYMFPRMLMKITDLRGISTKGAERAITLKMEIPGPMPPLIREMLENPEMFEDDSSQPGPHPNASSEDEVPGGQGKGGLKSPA
From the text: as §1, §2

[5] = biological target: T3, RARγ; assay: [3H]-ATRA displacement assay, baculovirus expressed receptor; type: binding; design: made in house; host or cells: baculovirus expression system
[6] = Table 12, relative affinity, competition of 3H-ATRA binding, Cheng-Prussof equation

SMILES: CC1(C)CC=C(c2ccc(C(F)(F)F)cc2)c2cc(C#Cc3ccc(C(=O)O)cc3)ccc21 [Compound 23, 4-[(5,6-Dihydro-5,5-dimethyl-8-(4-trifluoromethylphenyl)-2-naphthalenyl)ethynyl]benzoic acid]
- Kd [1]: 25 nM
- RAR-γ-VP-16 constitutive activity (negative hormone activity) [2]: dose dependent repression of RAR-γ-VP-16 constitutive activity
- Kd [3]: 32 nM
- Kd [4]: 31 nM
- Kd [5, 6]: 25 nM

SMILES: CC1(C)CC=C(c2ccc(Cl)cc2)c2cc(C#Cc3ccc(C(=O)O)cc3)ccc21 [Compound 25, 4-[(5,6-Dihydro-5,5-dimethyl-8-(4-chlorophenyl)-2-naphthalenyl)ethynyl]benzoic acid]
- Kd [1]: 17 nM
- RAR-γ-VP-16 constitutive activity (negative hormone activity) [2]: dose dependent repression of RAR-γ-VP-16 constitutive activity
- Kd [3]: 50 nM
- Kd [4]: 20 nM
- Kd [5, 6]: 13 nM

SMILES: Cc1csc(C2=CCC(C)(C)c3ccc(C#Cc4ccc(C(=O)O)cc4)cc32)n1 [Compound 31, 4-[(5,6-Dihydro-5,5-dimethyl-8-(4-methylthiazol-2-yl)-2-naphthalenyl)ethynyl]benzoic acid]
- Kd [1]: 52 nM
- Kd [3]: 370 nM
- Kd [4]: 100 nM

SMILES: Cc1ccc(C2=CCC(C)(C)c3ccc(C#Cc4ccc(C(=O)O)cc4)cc32)s1 [Compound 34, 4-[(5,6-Dihydro-5,5-dimethyl-8-(5-methyl-2-thienyl)-2-naphthalenyl)ethynyl]benzoic acid]
- Kd [1]: 30 nM
- Kd [3]: 52 nM
- Kd [4]: 17 nM

SMILES: Cc1ccc(C2=CCC(C)(C)c3ccc(C(=O)Oc4ccc(C(=O)O)cc4)cc32)cc1 [Compound 39, 4-[[(5,6-Dihydro-5,5-dimethyl-8-(4-methylphenyl)-2-naphthalenyl)carbonyl]oxy]-benzoic acid]
- Kd [1]: 38 nM
- Kd [3]: 67 nM
- Kd [4]: 113 nM

SMILES: Cc1ccc(C2=CCC(C)(C)c3ccc(C(=O)Nc4ccc(C(=O)O)c(F)c4)cc32)cc1 [Compound 41, 2-Fluoro-4-[[(5,6-dihydro-5,5-dimethyl-8-(4methylphenyl)-2-naphthalenyl)carbonyl]amino]-benzoic acid]
- Kd [1]: 491 nM
- Kd [3]: 5.1 nM
- Kd [4]: 725 nM

SMILES: Cc1ccc(C2=CCC(C)(C)c3ccc(/C=C/c4ccc(C(=O)O)cc4)cc32)cc1 [Compound 45]
- Kd [1]: 2.8 nM
- Kd [3]: 12 nM
- Kd [4]: 17 nM

SMILES: Cc1ccc(C2=CCC(C)(C)c3ccc(N=Nc4ccc(C(=O)O)cc4)cc32)cc1 [Compound 46b, 4-[(5,6-dihydro-5,5-dimethyl-8-(4-methylphenyl)-2-naphthalenyl)azo]-benzoic acid]
- Kd [1]: 3.7 nM
- Kd [3]: 250 nM
- Kd [4]: 5.8 nM

SMILES: CC(/C=C/C=C(\C)c1ccc2c(c1)C(c1ccc(C)cc1)=CCC2(C)C)=C\C(=O)O [Compound 52, (E,E,E)-3-methyl-7-(5,6-dihydro-5,5-dimethyl-8-(4-methylphenyl)-2-naphthalenyl)-2,4,6-octatrienoic acid]
- Kd [1]: 63 nM
- Kd [3]: 60 nM
- Kd [4]: 56 nM

SMILES: Cc1ccc(C2=CCC(C)(C)c3ccc(C#Cc4ccc(C(=O)O)cc4)cc32)cc1 [Compound 60, 4-[(5,6-dihydro-5,5-dimethyl-8-(4-methylphenyl)-2-naphthalenyl)ethynyl]benzoic acid]
- Kd [1]: 1.9 nM
- RAR-γ-VP-16 constitutive activity (negative hormone activity) [2]: dose dependent repression of RAR-γ-VP-16 constitutive activity
- Kd [3]: 1.5 nM
- Kd [4]: 3.3 nM
- Kd ([5]; Table 11): 3 nM
- Kd [5, 6]: 6 nM

SMILES: CC(C)(C)c1ccc(C2=CCC(C)(C)c3ccc(C#Cc4ccc(C(=O)O)cc4)cc32)cc1 [Compound 61, 4-[(5,6-Dihydro-5,5-dimethyl-8-(4-(1,1-dimethylethyl)phenyl)-2-naphthalenyl)ethynyl]benzoic acid]
- Kd [1]: 15 nM
- Kd [3]: 96 nM
- Kd [4]: 16 nM

SMILES: Cc1ccc(C2=CCC(C)(C)c3cc(C(=O)C=Cc4ccc(C(=O)O)cc4)ccc32)cc1 [Compound 101, 4-[3-oxo-3-(7,8-dihydro-5-(4-methylphenyl)-8,8-dimethyl-2-naphthalenyl)-1-propenyl]-benzoic acid]
- Kd [1]: 143 nM
- Kd [3]: 750 nM
- Kd [4]: 637 nM

SMILES: CC1(C)CC=C(c2ccccc2)c2ccc(C(=O)C=Cc3ccc(C(=O)O)cc3)cc21 [Compound 103, 4-[3-oxo-3-(7,8-dihydro-5-phenyl-8,8-dimethyl-2-naphthalenyl)-1-propenyl]-benzoic acid]
- Kd [1]: 273 nM
- Kd [3]: 301 nM
- Kd [4]: 261 nM
